Laboratory results from patent publication US10005769B2, “2,3-dihydrobenzofuran-5YL compounds as DYRK kinase inhibitors” (4SC DISCOVERY GMBH, priority 2013, dated 2018).
pIC50: −log10 of the molar value.

The compounds below were run against DYRK1B (Homo sapiens (Human), UniProt Q9Y463) (assay: DYRK1B Kinase Assay (33P ATP, DYRKtide substrate, Reaction Biology Corp.)). Details: 0.3 nM DYRK1B, 20 μM DYRKtide, 10 μM ATP, 25° C., 120 min.
Type: biochemical
Procedure: The assay was carried out by Reaction Biology Corp., […], Pa., USA according to specifications by Reaction Biology Corp., as detailed herein below and further described in Anastassiadis et al., Nature Biotechnology, 29 (2011) 1039-1045. The substrate DYRKtide (synthetic peptide RRRFRPASPLRGPPK) was dissolved in freshly prepared Base Reaction Buffer (20 mM Hepes (pH 7.5), 10 mM MgCl2, 1 mM EGTA, 0.02% Brij35, 0.02 mg/ml BSA, 0.1 mM Na3VO4, 2 mM DTT, 1% DMSO) at a concentration of 20 μM. DYRK1B was added to the substrate solution in a concentration of 0.3 nM and gently mixed. Dilution series of the compounds according to the present invention in DMSO were prepared. Each dilution was added to a batch of the above reaction mix, followed 20 min later by addition of a mixture of ATP and ^33P ATP (specific activity 0.01 μCi/μl final) to a final concentration of 10 μM. Reactions were carried out at 25° C. for 120 min, followed by spotting the reactions onto P81 ion exchange filter paper. Unbound phosphate was removed by extensive washing of the filters in 0.75% phosphoric acid. […] IC50 values and curve fits were obtained using Prism (Graph Pad Software). DYRK1B used in the above assays are further described in the below table: [table] Exemplary compound dilution series, final concentrations of compound in the assay vessel; the individual concentrations and the range of concentrations covered by the dilution series may differ for each compound, as long as enough data points are obtained to determine the compound's IC50: DYRK 1[…].

Sequence of DYRK1B (Q9Y463 whole entry): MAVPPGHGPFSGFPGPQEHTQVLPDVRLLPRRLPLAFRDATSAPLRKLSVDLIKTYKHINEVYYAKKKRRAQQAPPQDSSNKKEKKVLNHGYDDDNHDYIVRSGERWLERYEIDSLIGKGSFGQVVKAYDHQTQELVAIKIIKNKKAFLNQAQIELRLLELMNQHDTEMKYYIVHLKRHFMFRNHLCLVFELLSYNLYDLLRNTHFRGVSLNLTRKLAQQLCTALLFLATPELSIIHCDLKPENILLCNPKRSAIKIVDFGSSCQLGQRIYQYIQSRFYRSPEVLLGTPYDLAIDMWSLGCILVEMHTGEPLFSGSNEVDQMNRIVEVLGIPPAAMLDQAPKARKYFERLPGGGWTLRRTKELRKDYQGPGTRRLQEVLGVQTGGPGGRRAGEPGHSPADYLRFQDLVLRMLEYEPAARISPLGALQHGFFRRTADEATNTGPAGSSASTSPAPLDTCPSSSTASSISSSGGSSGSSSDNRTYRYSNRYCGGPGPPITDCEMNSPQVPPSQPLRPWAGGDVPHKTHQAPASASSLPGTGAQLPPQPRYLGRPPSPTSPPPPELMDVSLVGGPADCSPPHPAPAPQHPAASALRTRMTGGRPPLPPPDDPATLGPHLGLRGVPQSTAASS

| Compound | pIC50 |
| --- | --- |
| O=C(Nc1nnc(Br)s1)c1csc(-c2ccc3c(c2)CCO3)n1 [Compound 67, N-(5-Bromo-1,3,4-thiadiazol-2-yl)-2-(2,3-dihydro-1-benzofuran-5-yl)-1,3-thiazole-4-carboxamide] | 7.18 |
| O=C(Nc1ncns1)c1csc(-c2ccc3c(c2)CCO3)n1 [Compound 73, 2-(2,3-Dihydro-1-benzofuran-5-yl)-N-(1,2,4-thiadiazol-5-yl)-1,3-thiazole-4-carboxamide] | 6.94 |
| O=C(Nc1nc(-c2ccncc2)n[nH]1)c1csc(-c2ccc3c(c2)CCO3)n1 [Compound 42, 2-(2,3-Dihydrobenzofuran-5-yl)-N-(3-(pyridin-4-yl)-1H-1,2,4-triazol-5-yl)thiazole-4-carboxamide] | 8.69 |
| O=C(c1ccccc1)c1ccc2[nH]c(NC(=O)c3csc(-c4ccc5c(c4)CCO5)n3)nc2c1 [Compound 60, N-(5-Benzoyl-1H-1,3-benzodiazol-2-yl)-2-(2,3-dihydro-1-benzofuran-5-yl)-1,3-thiazole-4-carboxamide] | 7.42 |
| Cc1cnc(NC(=O)c2csc(-c3ccc4c(c3)CCO4)n2)s1 [Compound 58, 2-(2,3-Dihydro-1-benzofuran-5-yl)-N-(5-methyl-1,3-thiazol-2-yl)-1,3-thiazole-4-carboxamide] | 7.56 |
| COc1nc(NC(=O)c2csc(-c3ccc4c(c3)CCO4)n2)ns1 [Compound 64, 2-(2,3-Dihydro-1-benzofuran-5-yl)-N-(5-methoxy-1,2,4-thiadiazol-3-yl)-1,3-thiazole-4-carboxamide] | 7.32 |
| O=C(Nc1ncccc1O)c1csc(-c2ccc3c(c2)CCO3)n1 [Compound 16, 2-(2,3-Dihydrobenzofuran-5-yl)-N-(3-hydroxypyridin-2-yl)thiazole-4-carboxamide] | 6.75 |
| CCOC(=O)C1CCN(c2nnc(NC(=O)c3csc(-c4ccc5c(c4)CCO5)n3)s2)CC1 [Compound 53, Ethyl 1-{5-[2-(2,3-dihydro-1-benzofuran-5-yl)-1,3-thiazole-4-amido]-1,3,4-thiadiazol-2-yl}piperidine-4-carboxylate] | 7.84 |
| Cn1c(NC(=O)c2csc(-c3ccc4c(c3)CCO4)n2)nc2ccccc21 [Compound 54, 2-(2,3-Dihydro-1-benzofuran-5-yl)-N-(1-methyl-1H-1,3-benzodiazol-2-yl)-1,3-thiazole-4-carboxamide] | 7.75 |
| O=C(Nc1nncs1)c1csc(-c2ccc3c(c2)CCO3)n1 [Compound 71, 2-(2,3-Dihydro-1-benzofuran-5-yl)-N-(1,3,4-thiadiazol-2-yl)-1,3-thiazole-4-carboxamide] | 7.12 |
| COC(=O)c1n[nH]c(NC(=O)c2csc(-c3ccc4c(c3)CCO4)n2)n1 [Compound 15, Methyl 5-(2-(2,3-dihydrobenzofuran-5-yl)thiazole-4-carboxamido)-1H-1,2,4-triazole-3-carboxylate] | 6.82 |
| Ethyl 5-(2-(2,3-dihydrobenzofuran-5-yl)thiazole-4-carboxamido)-4H-1,2,4-triazole-3-carboxylate [Compound 20] | 6.96 |
| O=C(Nc1nc2ccccc2[nH]1)c1csc(-c2ccc3c(c2)CCO3)n1 [Compound 50, N-(1H-1,3-Benzodiazol-2-yl)-2-(2,3-dihydro-1-benzofuran-5-yl)-1,3-thiazole-4-carboxamide] | 8.17 |
| O=C(Nc1nc2ccccc2s1)c1csc(-c2ccc3c(c2)CCO3)n1 [Compound 75, N-(1,3-Benzothiazol-2-yl)-2-(2,3-dihydro-1-benzofuran-5-yl)-1,3-thiazole-4-carboxamide] | 6.87 |
| O=C(Nc1nc(-c2cccc(F)c2)n[nH]1)c1csc(-c2ccc3c(c2)CCO3)n1 [Compound 68, 2-(2,3-Dihydro-1-benzofuran-5-yl)-N-[3-(3-fluorophenyl)-1H-1,2,4-triazol-5-yl]-1,3-thiazole-4-carboxamide] | 7.17 |
| CSc1nc(NC(=O)c2csc(-c3ccc4c(c3)CCO4)n2)ns1 [Compound 77, 2-(2,3-Dihydro-1-benzofuran-5-yl)-N-[5-(methylsulfanyl)-1,2,4-thiadiazol-3-yl]-1,3-thiazole-4-carboxamide] | 6.38 |
| CCCSc1n[nH]c(NC(=O)c2csc(-c3ccc4c(c3)CCO4)n2)n1 [Compound 30, 2-(2,3-Dihydrobenzofuran-5-yl)-N-(3-(propylthio)-1H-1,2,4-triazol-5-yl)thiazole-4-carboxamide] | 8.10 |
| Nc1nc(NC(=O)c2csc(-c3ccc4c(c3)CCO4)n2)ns1 [Compound 70, N-(5-Amino-1,2,4-thiadiazol-3-yl)-2-(2,3-dihydro-1-benzofuran-5-yl)-1,3-thiazole-4-carboxamide] | 7.13 |

| Compound | pIC50 |
| --- | --- |
| O=C(Nc1nccs1)c1csc(-c2ccc3c(c2)CCO3)n1 [Compound 65, 2-(2,3-Dihydro-1-benzofuran-5-yl)-N-(1,3-thiazol-2-yl)-1,3-thiazole-4-carboxamide] | 7.31 |
| O=C(Nc1nc(CCc2ccccc2)n[nH]1)c1csc(-c2ccc3c(c2)CCO3)n1 [Compound 36, 2-(2,3-Dihydrobenzofuran-5-yl)-N-(3-phenethyl-1H-1,2,4-triazol-5-yl)thiazole-4-carboxamide] | 6.95 |
| O=C(Nc1nnc(N2CCCCC2)s1)c1csc(-c2ccc3c(c2)CCO3)n1 [Compound 52, 2-(2,3-Dihydro-1-benzofuran-5-yl)-N-[5-(piperidin-1-yl)-1,3,4-thiadiazol-2-yl]-1,3-thiazole-4-carboxamide] | 7.90 |
| CCOC(=O)c1csc(NC(=O)c2csc(-c3ccc4c(c3)CCO4)n2)n1 [Compound 78, Ethyl 2-[2-(2,3-dihydro-1-benzofuran-5-yl)-1,3-thiazole-4-amido]-1,3-thiazole-4-carboxylate] | 6.39 |
| CC(C)Sc1n[nH]c(NC(=O)c2csc(-c3ccc4c(c3)CCO4)n2)n1 [Compound 24, 2-(2,3-Dihydrobenzofuran-5-yl)-N-(3-(isopropylthio)-1H-1,2,4-triazol-5-yl)thiazole-4-carboxamide] | 7.75 |
| O=C(Nc1nc(SCc2ccc(Cl)cc2)n[nH]1)c1csc(-c2ccc3c(c2)CCO3)n1 [Compound 33, N-(3-((4-Chlorobenzyl)thio)-1H-1,2,4-triazol-5-yl)-2-(2,3-dihydrobenzofuran-5-yl)thiazole-4-carboxamide] | 6.47 |
| Cc1nc(NC(=O)c2csc(-c3ccc4c(c3)CCO4)n2)sc1C [Compound 74, 2-(2,3-Dihydro-1-benzofuran-5-yl)-N-(dimethyl-1,3-thiazol-2-yl)-1,3-thiazole-4-carboxamide] | 6.90 |
| O=C(Nc1nc2cc(C(=O)c3cccs3)ccc2[nH]1)c1csc(-c2ccc3c(c2)CCO3)n1 [Compound 48, 2-(2,3-Dihydro-1-benzofuran-5-yl)-N-[5-(thiophene-2-carbonyl)-1H-1,3-benzodiazol-2-yl]-1,3-thiazole-4-carboxamide] | 8.25 |
| N#CCSc1n[nH]c(NC(=O)c2csc(-c3ccc4c(c3)CCO4)n2)n1 [Compound 38, N-(3-((Cyanomethyl)thio)-1H-1,2,4-triazol-5-yl)-2-(2,3-dihydrobenzofuran-5-yl)thiazole-4-carboxamide] | 8.40 |
| CS(=O)(=O)c1n[nH]c(NC(=O)c2csc(-c3ccc4c(c3)CCO4)n2)n1 [Compound 43, 2-(2,3-Dihydrobenzofuran-5-yl)-N-(3-(methylsulfonyl)-1H-1,2,4-triazol-5-yl)thiazole-4-carboxamide] | 6.27 |
| Cc1csc(NC(=O)c2csc(-c3ccc4c(c3)CCO4)n2)n1 [Compound 72, 2-(2,3-Dihydro-1-benzofuran-5-yl)-N-(4-methyl-1,3-thiazol-2-yl)-1,3-thiazole-4-carboxamide] | 6.95 |
| C=CCSc1n[nH]c(NC(=O)c2csc(-c3ccc4c(c3)CCO4)n2)n1 [Compound 39, N-(3-(Allylthio)-1H-1,2,4-triazol-5-yl)-2-(2,3-dihydrobenzofuran-5-yl)thiazole-4-carboxamide] | 7.92 |
| O=C(Nc1cc[nH]n1)c1csc(-c2ccc3c(c2)CCO3)n1 [Compound 62, 2-(2,3-Dihydro-1-benzofuran-5-yl)-N-(1H-pyrazol-3-yl)-1,3-thiazole-4-carboxamide] | 7.37 |
| O=C(Nc1nc2ccc(CN3CCOCC3)cc2s1)c1csc(-c2ccc3c(c2)CCO3)n1 [Compound 40, 2-(2,3-Dihydrobenzofuran-5-yl)-N-(6-(morpholinomethyl)benzo[d]thiazol-2-yl)thiazole-4-carboxamide] | 7.80 |
| CC(=O)c1csc(NC(=O)c2csc(-c3ccc4c(c3)CCO4)n2)n1 [Compound 76, N-(4-Acetyl-1,3-thiazol-2-yl)-2-(2,3-dihydro-1-benzofuran-5-yl)-1,3-thiazole-4-carboxamide] | 6.73 |
| O=C(Nc1nnc(C(=O)O)[nH]1)c1csc(-c2ccc3c(c2)CCO3)n1 [Compound 31, 5-(2-(2,3-Dihydrobenzofuran-5-yl)thiazole-4-carboxamido)-4H-1,2,4-triazole-3-carboxylic acid] | 7.17 |
| O=C(Nc1nc2cc(C(=O)c3ccc[nH]3)ccc2[nH]1)c1csc(-c2ccc3c(c2)CCO3)n1 [Compound 49, 2-(2,3-Dihydro-1-benzofuran-5-yl)-N-[5-(H-pyrrole-2-carbonyl)-1H-1,3-benzodiazol-2-yl]-1,3-thiazole-4-carboxamide] | 8.18 |
